In patent US4533554A, “Quinone derivatives and use” (Takeda Chemical Industries, Ltd., priority 1979, dated 1985):

Experiments:
[1] = tested on: SRS-A (slow reacting substance of anaphylaxis) production and release; assay: Inhibitory effect on SRS-A (slow reacting substance of anaphylaxis) production and release in sensitised guinea-pig lung fragments; assay type: cell-based; conditions: guinea-pig lung fragments sensitised with egg albumin
Description: The inhibitory effect on SRS-A production and release was examined by the method of Orange and Moore (J. Immunol., 116, 392-397, 1976). Quinone derivatives were added to guinea-pig lung fragments sensitised with egg albumin as the antigen, and the amount of SRS-A produced and released as a consequence was assayed by the method of Brocklehust (J. Physiol., 151, 416-435, 1960).

[2] = tested on: SHR (spontaneously hypertensive rats); assay: Blood-pressure reducing action in SHR (spontaneously hypertensive rats); assay type: in vivo, rat; conditions: oral, L-methyldopa 40 mg/kg, test compound equimolar amount
Description: The blood-pressure reducing action of the compounds obtained in the above-mentioned Examples was confirmed with the use of SHR (spontaneously hypertensive rats) in accordance with the method of Watson and Ludden (L. S. Watson & C. T. Ludden in "New Antihypertensive Drugs", A. Scriabin and C. S. Sweet, Ed., Spectrum Publications, New York, 1976, page 87). As a control compound, L-methyldopa was orally administered in a dose of 40 mg/kg, while an equimolar amount of a test compound was orally given, to examine the effect. Results are shown in Table 8, where the marks, (+++), (++), (+) and (±), indicate the blood-pressure reducing actions of 31 to 40 mmHg, 21 to 30 mmHg, 11 to 20 mmHg and not more than 10 mmHg, respectively.

[3] = tested on: mortal activity of arachidonic acid in mouse; assay: Suppression of mortal activity of arachidonic acid in mouse; assay type: in vivo; conditions: 300 mg/kg oral, 1 hour before arachidonic acid 60 mg/kg i.v., male JCL:ICR mice, read-out: Number of survival mice/Total number of mice (converted)
Description: Male mice (four weeks old, JCL:ICR) were used in this experimental. Quinone derivatives were suspended with arabin to administrate per OS. After one hour of the oral administration at a dose of 300 mg/kg of a quinone derivative, an aqueous solution of arachidonic acid (20 mg/ml, pH 8.8) was intravenously administrated at dose of 60 mg/kg of arachidonic acid from mouse tail vein. The suppressive effects were shown in Table 10 by the ratio of the number of survival mice to the total number of mice administrated the test compound.

Molecule: NC1=NN(c2cccc(C(F)(F)F)c2)CC1 [BW-755c, reference compound]
- inhibition at 10 µM ([1]; Cavia porcellus, 10 μM): 4.7 ± 3.7%
- inhibition at 100 µM ([1]; Cavia porcellus, 100 μM): 15.3 ± 4.3%

Molecule: CC1=C(C/C=C(\C)CC/C=C(\C)CCC(=O)O)C(=O)c2ccccc2C1=O [IIa-3]
- Blood-pressure reducing action [2]: +++ (31 to 40 mmHg)
- inhibition at 10 µM ([1]; Cavia porcellus, 10 μM): 38.6 ± 4.3%
- responders at 300 mg/kg [3]: 40%

Molecule: CC1=C(C/C=C(\C)CC/C=C(\C)CC/C=C(\C)CCC(=O)O)C(=O)c2ccccc2C1=O [IIa-4]
- Blood-pressure reducing action [2]: +++ (31 to 40 mmHg)
- inhibition at 1 µM ([1]; Cavia porcellus): 24.3 ± 4.2%

Molecule: CC1=C(C/C=C(\C)CC/C=C(\C)CC/C=C(\C)CC/C=C(\C)CCC(=O)O)C(=O)c2ccccc2C1=O [IIa-5]
- Blood-pressure reducing action [2]: +++ (31 to 40 mmHg)

Molecule: CC1=C(C)C(=O)C(C/C=C(\C)CC/C=C(\C)CCC(=O)O)=C(C)C1=O [IIa-7]
- inhibition at 10 µM ([1]; Cavia porcellus, 10 μM): 40.2 ± 7.3%

Molecule: CC1=C(C)C(=O)C(C/C=C(\C)CC/C=C(\C)CC/C=C(\C)CC/C=C(\C)CCC(=O)O)=C(C)C1=O [IIa-9]
- Blood-pressure reducing action [2]: ++ (21 to 30 mmHg)

Molecule: COC1=C(OC)C(=O)C(C/C=C(\C)CC/C=C(\C)CCC(=O)O)=C(C)C1=O [IIa-10]
- inhibition at 1 µM ([1]; Cavia porcellus): 35 ± 6.3%

Molecule: COC1=C(OC)C(=O)C(C/C=C(\C)CC/C=C(\C)CC/C=C(\C)CCC(=O)O)=C(C)C1=O [IIa-12]
- Blood-pressure reducing action [2]: ++ (21 to 30 mmHg)
- inhibition at 1 µM ([1]; Cavia porcellus): 21.8 ± 8.5%

Molecule: COC1=C(OC)C(=O)C(C/C=C(\C)CC/C=C(\C)CC/C=C(\C)CC/C=C(\C)CCC(=O)O)=C(C)C1=O [IIa-13]
- Blood-pressure reducing action [2]: ++ (21 to 30 mmHg)

Molecule: COC1=C(OC)C(=O)C(C/C=C(\C)CC/C=C(\C)CC/C=C(\C)CC/C=C(\C)CC/C=C(\C)CC/C=C(\C)CC/C=C(\C)CCC(=O)O)=C(C)C1=O [IIa-14]
- Blood-pressure reducing action [2]: ++ (21 to 30 mmHg)

Molecule: COC1=C(OC)C(=O)C(C/C=C(\C)CC/C=C(\C)CC/C=C(\C)CC/C=C(\C)CC/C=C(\C)CC/C=C(\C)CC/C=C(\C)CC/C=C(\C)CC/C=C(\C)CC/C=C(\C)CCC(=O)O)=C(C)C1=O [IIa-15]
- Blood-pressure reducing action [2]: ++ (21 to 30 mmHg)

Molecule: COC1=C(OC)C(=O)C(C/C=C(\C)CC/C=C(\C)CCC(=O)OC/C=C(\C)CC/C=C(\C)CCC=C(C)C)=C(C)C1=O [IIa-16]
- Blood-pressure reducing action [2]: ++ (21 to 30 mmHg)

Molecule: COC1=C(OC)C(=O)C(C/C=C(\C)CC/C=C(\C)CCC(=O)OC/C=C(\C)CCC=C(C)C)=C(C)C1=O [IIa-19]
- Blood-pressure reducing action [2]: ++ (21 to 30 mmHg)

Molecule: CC(C)=CCC/C(C)=C/COC(=O)CC/C(C)=C/CC/C(C)=C/CC1=C(C)C(=O)c2ccccc2C1=O [IIa-20]
- Blood-pressure reducing action [2]: ++ (21 to 30 mmHg)

Molecule: CC(C)=CCC/C(C)=C/CC/C(C)=C/COC(=O)CC/C(C)=C/CC/C(C)=C/CC1=C(C)C(=O)c2ccccc2C1=O [IIa-21]
- Blood-pressure reducing action [2]: ++ (21 to 30 mmHg)

Molecule: COC1=C(OC)C(=O)C(C/C=C(\C)CCC(=O)N2CCN(C/C=C(\C)CC/C=C(\C)CCC=C(C)C)CC2)=C(C)C1=O [Ia-3]
- responders at 300 mg/kg [3]: 40%

Molecule: COC1=C(OC)C(=O)C(C/C=C(\C)CC/C=C(\C)CCC(=O)N2CCN(Cc3cc(OC)c(OC)c(OC)c3)CC2)=C(C)C1=O [Ia-6]
- inhibition at 1 µM ([1]; Cavia porcellus): 26.8 ± 2.2%
- responders at 300 mg/kg [3]: 40%

Molecule: COC1=C(OC)C(=O)C(C/C=C(\C)CC/C=C(\C)CCC(N)=O)=C(C)C1=O [Ia-7]
- responders at 300 mg/kg [3]: 40%

Molecule: COC1=C(OC)C(=O)C(C/C=C(\C)CC/C=C(\C)CCC(=O)N2CCOCC2)=C(C)C1=O [Ia-9]
- responders at 300 mg/kg [3]: 40%

Molecule: COC1=C(OC)C(=O)C(C/C=C(\C)CC/C=C(\C)CC/C=C(\C)CCC(=O)N2CCN(Cc3ccc4c(c3)OCO4)CC2)=C(C)C1=O [Ia-11]
- inhibition at 1 µM ([1]; Cavia porcellus): 15 ± 5.6%
- responders at 300 mg/kg [3]: 80%

Molecule: COc1cc(CN2CCN(C(=O)CC/C(C)=C/CC/C(C)=C/CC/C(C)=C/CC3=C(C)C(=O)c4ccccc4C3=O)CC2)cc(OC)c1OC [Ia-28]
- responders at 300 mg/kg [3]: 100%

Molecule: COC1=C(OC)C(=O)C(C/C=C(\C)CC/C=C(\C)CCC(=O)N(C(=O)NC2CCCCC2)C2CCCCC2)=C(C)C1=O [Ia-48]
- responders at 300 mg/kg [3]: 40%

Molecule: C[C@](N)(Cc1ccc(O)c(O)c1)C(=O)O [L-Methyldopa, reference compound]
- Blood-pressure reducing action [2]: +++ (31 to 40 mmHg)

Molecule: Sodium baikalein phosphate [BSP, reference compound]
- Inhibitory Effect on SRS-A Production (% inhibition of production and release) ([1]; 10 μM): 18.7 ± 6.6%
- Inhibitory Effect on SRS-A Production (% inhibition of production and release) ([1]; 100 μM): 50.8 ± 10.7%
